pEC50: −log10 of the molar value. Activity calls are given as the source filed them. No cut-off for these calls is given here.
Legend:
C6 [1] = experiment: Inhibition of MTX-induced calcium influx in rat glioma C6 cells using 45CaCl2 incubated for 12 mins prior to MTX-challenge measured after 12 mins by scintillation counting; format: functional, cell-based
C6 [2] = experiment: Inhibition of MTX-induced calcium influx in rat glioma C6 cells using 45CaCl2 at 10 uM incubated for 12 mins prior to MTX-challenge measured after 12 mins by scintillation counting relative to untreated-control; format: functional
C6 [3] = experiment: Inhibition of MTX-induced 45Ca2+ influx in rat glioma C6 cells; format: functional, cell-based
Mus musculus = experiment: Toxicity in ip dosed mouse; format: organism-based; conditions: in vivo

Row | Compound | pEC50 (C6 [1]) | inhibition (C6 [1]) | pEC50 (C6 [3]) | also measured
1 | C[C@@]12CC[C@@H]3O[C@@H]4C[C@@H]5O[C@@H]6C[C@@H]7O[C@]8(C)CC[C@@H]9O[C@H](CO)[C@@H](O)C[C@H]9O[C@H]8C[C@H]7O[C@H]6CC[C@@]5(C)O[C@H]4C[C@H]3O[C@H]1C[C@H]1O[C@@H](CCOCc3ccccc3)[C@H](OCc3ccccc3)C[C@@H]1O2 | 4.82 | – | – | –
2 | C[C@@]12CC[C@@H]3O[C@@H]4C[C@@H]5O[C@@H]6C[C@H](O)[C@@H](CO)O[C@H]6CC[C@@]5(C)O[C@H]4C[C@H]3O[C@H]1C[C@H]1O[C@@H](CCOCc3ccccc3)[C@H](OCc3ccccc3)C[C@@H]1O2 | 5.70 | Dose-dependent effect | – | inhibition at 10 µM (C6 [2]): 80%
3 | C=C(C=O)C[C@@H]1C[C@H](O)[C@@H]2O[C@@H]3C[C@]4(C)O[C@@H]5/C=C\C[C@@H]6O[C@H]7[C@H](C/C=C\C[C@H]6O[C@H]5CCC[C@H]4O[C@H]3C[C@H]2O1)O[C@@H]1C[C@@H]2O[C@@H]3CC(=O)O[C@H]3C[C@@H](C)C[C@@]2(C)O[C@H]1C[C@@H]7C [BREVETOXIN A] | – | – | 4.80 | –
4 | C=C(C=O)C[C@@H]1C[C@H](O)[C@]2(C)O[C@@H]3C[C@@H]4O[C@@H]5C[C@]6(C)O[C@]7(C)CC[C@@H]8O[C@@H]9C[C@]%10(C)O[C@@H]%11C(C)=CC(=O)O[C@H]%11C[C@H]%10O[C@H]9C[C@@H](C)[C@H]8O[C@H]7C[C@H]6O[C@@]5(C)C/C=C\[C@H]4O[C@H]3C[C@H]2O1 [BREVETOXIN B] | – | Active | 4.89 | –
5 | C=CC[C@H](C)[C@H](C)C[C@@H](O)[C@H](O)[C@@H]1CC[C@@]2(C)O[C@@]3(C)C[C@@]4(C)O[C@H]5/C=C\C[C@H]6O[C@H]7C[C@H]8O[C@H]9C[C@@]%10(C)O[C@@](C)([C@@H]%11CC[C@H]%12O[C@@]%13(C)C[C@H]%14O[C@@]%15(C)C[C@H]%16O[C@@]%17(C)C[C@@H](O)[C@H]([C@@H]%18O[C@H]%19[C@H](O)[C@@H](O)[C@H](C[C@H](O)C[C@@H](O)[C@@H]%20O[C@H]%21[C@H](O)[C@@H](O)[C@H]([C@@H]%22O[C@@H]%23[C@H](O)[C@H]%24O[C@H]%25C[C@H]%26O[C@@H](C[C@H](O)[C@@H](O)[C@H]%27O[C@H]%28[C@H](O)[C@H]%29O[C@H]%30C[C@H]%31O[C@H]%32[C@@H](O)[C@@H](O)[C@H]([C@H](C)[C@H](O)[C@H](C)CC[C@H](OS(=O)(=O)[O-])[C@H](O)[C@H](C)C[C@@H](O)C(=C)/C(C)=C/CO)O[C@@H]%32[C@H](O)C[C@]%31(C)O[C@@H]%30C[C@]%29(C)O[C@@H]%28C[C@H]%27O)[C@H](OS(=O)(=O)[O-])[C@H](O)[C@@H]%26O[C@@H]%25C[C@@H]%24O[C@H]%23[C@H](O)[C@H]%22O)O[C@H]%21C[C@H]%20O)O[C@H]%19C[C@H]%18O)O[C@@H]%17[C@H](O)[C@]%16(C)O[C@@H]%15CC[C@]%14(C)O[C@@H]%13C[C@@H]%12O%11)[C@H](O)C[C@@H]%10O[C@]9(C)CC[C@]8(C)O[C@]7(C)C[C@@H]6O[C@@H]5C[C@@H]4O[C@@H]3C[C@@H]2O1.[Na+].[Na+] [MAITOTOXIN] | – | – | – | LD50 (Mus musculus): 50 ng/kg
